The results in this text go back to ChEMBL document CHEMBL1135357, “Anti-MRSA activity of alkyl gallates” (2002).

Holding throughout (assay type): functional
For test [1], the system named is Staphylococcus aureus. Nature of the test: Compound was tested for antibacterial activity against MRSA ATCC 33591, expressed as minimum inhibitory concentration (MIC).
Test [2] deals with Staphylococcus aureus. Put plainly: Compound was tested for antibacterial activity against MRSA ATCC 33591, expressed as minimum bactericidal concentration (MBC).
Test [3] has as its system Staphylococcus aureus. Put plainly: Compound was tested for antibacterial activity against MRSA ATCC 33591, expressed as aminimum inhibitory concentration (MIC).
Test [4] has as its system Staphylococcus aureus. Put plainly: Compound was tested for antibacterial activity against Staphylococcus aureus (MRSA).
In another test the test system is Cutibacterium acnes. Nature of the test: Compound was tested for antibacterial activity against Propionibacterium acnes.
For test [5], the system named is Staphylococcus aureus. Nature of the test: Compound was tested for antibacterial activity against Staphylococcus aureus.
For the next test, the system named is Micrococcus luteus. Nature of the test: Compound was tested for antibacterial activity against Micrococcus luteus.
Another test deals with Streptococcus mutans. Put plainly: Compound was tested for antibacterial activity against Streptococcus mutans.
Another test has as its system Bacillus thuringiensis. Nature of the test: Compound was tested for antibacterial activity against Bacillus thuringiensis.
Test [6] relates to Corynebacterium ammoniagenes. Put plainly: Compound was tested for antibacterial activity against Brevibacterium ammoniagenes.
In the next test the test system is Bacillus subtilis. Nature of the test: Compound was tested for antibacterial activity against Bacillus subtilis.

Converted amounts (≈) assume the structure as drawn. Where only a bound is given, the exact number is not on record here.

The MIC is the lowest concentration found to suppress growth. High values mean a less susceptible organism, low ones a more susceptible organism. As usually defined, the MBC is the smallest concentration meeting the test's criterion for killing. Read a low MBC as more potent killing. As to `CCCCCCCCCCCOC(=O)c1cccc(O)c1`, it took 50 µg/mL (≈ 171 µM) to inhibit growth in the test with Staphylococcus aureus [1] (MIC). Moreover, in the test with Staphylococcus aureus [2], the MBC came to 50 µg/mL (≈ 171 µM).
Take `CCCCCCCCCCCOC(=O)c1cc(O)cc(O)c1`: the MIC with Staphylococcus aureus [1] came to 50 µg/mL (≈ 162 µM). In the test with Staphylococcus aureus [2], the MBC stood at 50 µg/mL (≈ 162 µM).
Take `CCCCCCCCCCOC(=O)c1cc(O)c(O)c(O)c1` [DECYL GALLATE]: the MIC with Staphylococcus aureus [1] turned out to be 12.5 µg/mL (≈ 40.3 µM). The same compound registered an MBC in the test with Staphylococcus aureus [2] of 25 µg/mL (≈ 80.5 µM).
As for `CCCCCCCCCCCCOC(=O)c1cc(O)c(O)c(O)c1` [DODECYL GALLATE], the MIC against Staphylococcus aureus [3] amounted to 12.5 µg/mL (≈ 36.9 µM); against Staphylococcus aureus [4], 12.5 µg/mL (≈ 36.9 µM); against Cutibacterium acnes it was 6.25 µg/mL (≈ 18.5 µM); in the test with Staphylococcus aureus [5], 12.5 µg/mL (≈ 36.9 µM); in the test with Micrococcus luteus, 12.5 µg/mL (≈ 36.9 µM); against Streptococcus mutans, 100 µg/mL (≈ 295 µM). Further, the values for the MIC (with Bacillus thuringiensis; in [6]; in the test with Bacillus subtilis) were 50 µg/mL (≈ 148 µM), 25 µg/mL (≈ 73.9 µM) and 25 µg/mL (≈ 73.9 µM), respectively. The MBC against Staphylococcus aureus [4] worked out at 25 µg/mL (≈ 73.9 µM); in the test with Cutibacterium acnes, 6.25 µg/mL (≈ 18.5 µM); against Staphylococcus aureus [5], 25 µg/mL (≈ 73.9 µM); against Micrococcus luteus, 25 µg/mL (≈ 73.9 µM); in the test on Streptococcus mutans, 100 µg/mL (≈ 295 µM); with Staphylococcus aureus [2], 25 µg/mL (≈ 73.9 µM). The MBC (in [6]; with Bacillus subtilis) was 25 µg/mL (≈ 73.9 µM) each time.
Turning to `CCCCCCCOC(=O)c1cc(O)c(O)c(O)c1` [HEPTYL GALLATE], in the test on Staphylococcus aureus [1], inhibition of growth (MIC) required 25 µg/mL (≈ 93.2 µM). Further, in the test on Staphylococcus aureus [2], the MBC is 100 µg/mL (≈ 373 µM).
For the compound `CCCCCCOC(=O)c1cc(O)c(O)c(O)c1` [HEXYL GALLATE], the minimum inhibitory concentration (MIC) against Staphylococcus aureus [1] was found to be 50 µg/mL (≈ 197 µM). The MBC in the test on Staphylococcus aureus [2] was 200 µg/mL (≈ 787 µM).
`COc1cccc(OC)c1C(=O)N[C@@H]1C(=O)N2[C@@H]1SC(C)(C)[C@@H]2C(=O)O` [METHICILLIN] showed an MIC with Staphylococcus aureus [1] of 800 µg/mL (≈ 2100 µM). Further, the MBC with Staphylococcus aureus [2] was greater than 800 µg/mL.
Compound `CCCCCCCCCOC(=O)c1cc(O)c(O)c(O)c1` [NONYL GALLATE] gave an MIC against Staphylococcus aureus [1] of 25 µg/mL (≈ 84.4 µM). The compound further showed a minimum bactericidal concentration (MBC) against Staphylococcus aureus [2] of 50 µg/mL (≈ 169 µM).
`CCCCCCCCOC(=O)c1cc(O)c(O)c(O)c1` [OCTYL_GALLATE] returned an MIC in the test with Staphylococcus aureus [1] of 25 µg/mL (≈ 88.5 µM). Further, in the test on Staphylococcus aureus [2], the MBC stood at 50 µg/mL (≈ 177 µM).
The compound `CCCOC(=O)c1cc(O)c(O)c(O)c1` [PROPYL GALLATE] yielded an MIC with Staphylococcus aureus [1] of 1600 µg/mL (≈ 7540 µM). Also, the MBC against Staphylococcus aureus [2] was 3200 µg/mL (≈ 15100 µM).
`CCCCCCCCCCCOC(=O)c1cc(O)c(O)c(O)c1` [UNDECYL GALLATE]: inhibition of growth in the test with Staphylococcus aureus [1] (MIC) required 12.5 µg/mL (≈ 38.5 µM). In the test on Staphylococcus aureus [2], this compound registered an MBC of 25 µg/mL (≈ 77.1 µM).
